# From PMC10950972, “Relative bioavailability of fedratinib through various alternative oral administration methods in healthy adults” (Cancer Chemotherapy and Pharmacology, 2023)
# Like-named read-outs stand apart in the source and are kept apart here.
# Legend:
# [1] = Phase 1 relative bioavailability study part 1: plasma pharmacokinetics of fedratinib (2-period crossover); type: in vivo, human; conditions: for AUC(0-t) / AUC(0-inf) / Cmax / Tmax / half-life: human, plasma, po, 400 mg; for half-life: read-out: t½, mean (SD) (converted)
# Procedure: Study part 1 was a 2-period, 2-sequence, open-label, crossover design (Fig. 1A). Treatment 1A (reference) consisted of fedratinib 400 mg (4 × 100-mg capsules) administered orally along with approximately 180 mL of a commercially available nutritional supplement (ie, Ensure Plus). Treatment 1B (test) consisted of fedratinib 400 mg dispersed in a nutritional supplement and administered orally. Participants were randomized to receive treatment in one of the following sequences: 1A–1B or 1B–1A. […] No food or beverages (except water and any nutritional supplement administered with the treatment) were allowed for at least 4 h after dosing.
# Approximately 1 h before each fedratinib administration, ondansetron oral tablet (film coated) 8 mg was given orally to reduce the potential for fedratinib-related nausea and vomiting. There was a washout period of at least 12 days between each dose of fedratinib. The duration from screening through the follow-up phone call was approximately 10 weeks. Participants resided at the clinical site from days -1 to 23 (study part 1), or days -1 to 35 (study part 2). If a participant discontinued from the study for any reason, an early termination visit was performed, with only the safety assessments scheduled for the day of discharge taking place. Additionally, each participant who discontinued also received a follow-up phone call 4 (± 2) days after completion of the early termination visit.
# For study part 1, and part 2 treatments 2A and 2B, blood samples were collected pre-dose (0 h) and at 0.5, 1, 1.5, 2, 3, 4, 6, 8, 12, 24, 48, 72, 120, 168, 192, and 240 h post-dose. For treatment 2C, blood samples were collected pre-dose (0 h) and at 0.5, 1, 1.5, 2, 3, 4, 6, 8, 12, 12.5, 13, 13.5, 14, 15, 16, 18, 24, 48, 72, 120, 168, 192, and 240 h post-dose of the first dose. The plasma concentration of fedratinib was measured using a validated liquid chromatography-tandem mass spectrometry assay with a lower limit of quantification of 1.00 ng/mL [12, 20].
# Plasma PK parameters were calculated using noncompartmental methods by a validated PK analysis program (Phoenix® WinNonlin®, v8.3.4 [Certara USA, Inc., Princeton, NJ, USA]) using actual times. The PK parameters determined for fedratinib Cmax, Tmax, AUC from time 0 to the time of the last quantifiable concentration (AUC0–t), AUC from time 0 to infinity (AUC0–∞), and t½. Additionally for treatment 2C, Cmax and Tmax were estimated after both the first dose (Cmax and Tmax) and the second dose (Cmax2 and Tmax2). AUC0–t and AUC0–∞ were estimated from time 0 (the first dose) through 240 h after the first dose. AUC parameters were calculated using the linear-log trapezoidal method.
# The sample size for this study was based on consideration of the precision in the comparison of PK parameters, represented by the 90% confidence interval (CI) of the geometric mean ratios of Cmax and AUC of fedratinib. […] Only participants with valid PK data were included in the summary statistics and statistical analysis.
# To compare the PK parameters and estimated relative bioavailability of fedratinib following different administration methods in each study part (treatment 1B to 1A, and treatment 2B and 2C to 2A), a linear mixed-effect model with treatment, period, and sequence as fixed effects and participant nested within sequence as a random effect was fitted to the natural log-transformed PK parameters (Cmax, AUC0–t, and AUC0–∞) for use in estimation of effects and construction of CIs.
# In study parts 1 and 2, point estimates and 90% CI for the difference between test and reference treatments was exponentiated, and the ratio of geometric means (test/reference) and associated 90% CI was presented on the original scale. For comparison of treatment 2C to 2A in study part 2, the relative bioavailability assessment was based on only AUC. For Tmax, the difference between test and reference was assessed for significance using Wilcoxon signed-rank test. […]
# [2] = system: patients with myelofibrosis; conditions: cited from earlier work
# [3] = Treatment 1B vs 1A (dispersed oral vs intact capsules), linear mixed-effect model
smiles,measurement,setting,value
Cc1cnc(Nc2ccc(OCCN3CCCC3)cc2)nc1Nc1cccc(S(=O)(=O)NC(C)(C)C)c1 [fedratinib],AUC0–∞ geometric mean ratio (90% CI),[1]; [3],1.009 (0.939–1.085)
same,Cmax geometric mean ratio (90% CI),[1]; [3],1.059 (0.969–1.157)
same,AUC(0-t),"[1]; Treatment 1A: single 400 mg oral, 4 × 100-mg intact capsules with nutritional supplement, n = 27, read-out: AUC0–t, geometric mean (Geo. %CV)",20000 ng·h/mL
same,AUC(0-inf),"[1]; Treatment 1A: single 400 mg oral, 4 × 100-mg intact capsules with nutritional supplement, n = 27, read-out: AUC0–∞, geometric mean (Geo. %CV)",22100 ng·h/mL
same,Cmax,"[1]; Treatment 1A: single 400 mg oral, 4 × 100-mg intact capsules with nutritional supplement, n = 27, read-out: Cmax, geometric mean (Geo. %CV)",1320 ng/mL
same,Tmax,"[1]; Treatment 1A: single 400 mg oral, 4 × 100-mg intact capsules with nutritional supplement, n = 27, read-out: Tmax, median (range)",2.1 h
same,half-life,"[1]; Treatment 1A: single 400 mg oral, 4 × 100-mg intact capsules with nutritional supplement, n = 27",103 h
same,AUC(0-t),"[1]; Treatment 1A: single 400 mg oral, intact capsules with nutritional supplement, n = 27, read-out: AUC0–t, geometric mean (statistical analysis)",20400 ng·h/mL
same,AUC(0-inf),"[1]; Treatment 1A: single 400 mg oral, intact capsules with nutritional supplement, n = 27, read-out: AUC0–∞, geometric mean (statistical analysis)",22500 ng·h/mL
same,Cmax,"[1]; Treatment 1A: single 400 mg oral, intact capsules with nutritional supplement, n = 27, read-out: Cmax, geometric mean (statistical analysis)",1350 ng/mL
same,Tmax,"[1]; Treatment 1A: single 400 mg oral, intact capsules with nutritional supplement, n = 27, read-out: Tmax, median (statistical analysis)",2.57 h
same,AUC(0-t),"[1]; Treatment 1B: single 400 mg oral, capsule contents dispersed in nutritional supplement, n = 26, read-out: AUC0–t, geometric mean (Geo. %CV)",20500 ng·h/mL
same,AUC(0-t),"[1]; Treatment 1B: single 400 mg oral, capsule contents dispersed in nutritional supplement, n = 26, read-out: AUC0–t, geometric mean (statistical analysis)",20500 ng·h/mL
same,AUC(0-inf),"[1]; Treatment 1B: single 400 mg oral, capsule contents dispersed in nutritional supplement, n = 26, read-out: AUC0–∞, geometric mean (Geo. %CV)",22700 ng·h/mL
same,AUC(0-inf),"[1]; Treatment 1B: single 400 mg oral, capsule contents dispersed in nutritional supplement, n = 26, read-out: AUC0–∞, geometric mean (statistical analysis)",22700 ng·h/mL
same,Cmax,"[1]; Treatment 1B: single 400 mg oral, capsule contents dispersed in nutritional supplement, n = 26, read-out: Cmax, geometric mean (Geo. %CV)",1430 ng/mL
same,Cmax,"[1]; Treatment 1B: single 400 mg oral, capsule contents dispersed in nutritional supplement, n = 26, read-out: Cmax, geometric mean (statistical analysis)",1430 ng/mL
same,Tmax,"[1]; Treatment 1B: single 400 mg oral, capsule contents dispersed in nutritional supplement, n = 26, read-out: Tmax, median (statistical analysis)",2 h
same,half-life,"[1]; Treatment 1B: single 400 mg oral, capsule contents dispersed in nutritional supplement, n = 26",98.7 h
same,Patients who experienced nausea,[2]; FREEDOM study,39.5%
same,Patients who experienced nausea,[2]; JAKARTA trial,62%
